The results in this text go back to ChEMBL document CHEMBL1201862, “PubChem BioAssay data set” (2004).

Structures are written as SMILES.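 Five concentrations, 48 hours, 96-well plates. At the GI50, growth is halved.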 Active and inactive are the calls of the source. Cut-off read from the data, not from the text of the source: active = GI50 up to about 1.1 µM and inactive = higher.

Test systems include EKVX; SNB-75; IGROV-1; SK-MEL-28; SK-MEL-2; UO-31; MDA-N; HOP-92; KM12; OVCAR-8; HCT-116; SF-295; HL-60; BT-549; SNB-19; SK-MEL-5; HOP-62; CAKI-1; SK-OV-3; HCC 2998.
Holding throughout (test): inhibition of tumour cell growth, NCI panel, 48 h

On to `OC1(c2ccc(Cl)cc2)c2ccc(CN3CCCC3)cc2C2=NCCN21` (centres undefined), for which the GI50 with EKVX is 15.2 µM (inactive); with SNB-75, 3.16 µM (inactive); in the assay on IGROV-1 it was 14.5 µM (inactive); in the assay on SK-MEL-28, 10.7 µM (inactive); in the assay with SK-MEL-2, 19 µM (inactive); in the assay on UO-31, 14.1 µM (inactive). For the same molecule, the GI50 in the assay on MDA-N is 10.8 µM (inactive); in the assay on HOP-92 it was 2.53 µM (inactive); with KM12, 12.8 µM (inactive); with OVCAR-8 it was 15.4 µM (inactive); in the assay on HCT-116 it was 14.1 µM (inactive); in the assay on SF-295, 14.6 µM (inactive). For the same molecule, the GI50 with HL-60 is 12.6 µM (inactive); in the assay on BT-549 it was 8.77 µM (inactive); in the assay with SNB-19, 16.6 µM (inactive); with SK-MEL-5 it was 10.5 µM (inactive); with HOP-62 it was 15.6 µM (inactive); with CAKI-1, 16.4 µM (inactive). Besides, the GI50 in the assay with SK-OV-3 is 14.2 µM (inactive).

For the molecule `O=C(Cc1nc2ccc(C(=O)c3ccccc3)cc2nc1O)C(=O)Nc1ccccc1[N+](=O)[O-]`, the GI50 with EKVX is 89.7 µM (inactive); in the assay on SNB-75, 26.2 µM (inactive); with IGROV-1, 40.8 µM (inactive); with SK-MEL-28, 94.8 µM (inactive); with SK-MEL-2 it was 91.2 µM (inactive); with UO-31 it was 40 µM (inactive). Also, the GI50 was 39.4 µM (inactive) with MDA-N; 65.9 µM (inactive) in the assay with HOP-92; 24 µM (inactive) with KM12; 33.5 µM (inactive) in the assay on OVCAR-8; 57 µM (inactive) in the assay on HCT-116; 48.6 µM (inactive) in the assay with SF-295. Besides, the GI50 in the assay with HL-60 was 40.3 µM (inactive); in the assay on BT-549 it was 58.9 µM (inactive); in the assay on SK-MEL-5 it was 46 µM (inactive); in the assay on HCC 2998, 37.2 µM (inactive); in the assay on CAKI-1, 34.8 µM (inactive); in the assay with SK-OV-3, > 100 µM (inactive).

Turning to `O=C1/C(=C2\SCC(=O)N2c2ccccc2)SC(=S)N1c1ccccc1`, the GI50 is 30.3 µM (inactive) in the assay on EKVX; 17.1 µM (inactive) with IGROV-1; 35.9 µM (inactive) with SK-MEL-28; 27.3 µM (inactive) with SK-MEL-2; 44.2 µM (inactive) with MDA-N; 23.3 µM (inactive) with HOP-92. For the same molecule, the GI50 was 51.9 µM (inactive) in the assay with KM12; 41.4 µM (inactive) with OVCAR-8; 46.3 µM (inactive) in the assay on HCT-116; 28.1 µM (inactive) with SF-295; 78.5 µM (inactive) in the assay with HL-60; 2.82 µM (inactive) in the assay on BT-549. Moreover, the GI50 in the assay with SNB-19 was 50.9 µM (inactive); in the assay with SK-MEL-5, 46.7 µM (inactive); in the assay with HCC 2998, 28.2 µM (inactive); in the assay with CAKI-1 it was 21.1 µM (inactive); in the assay on SK-OV-3, 23.6 µM (inactive).

On to `CC(C)(C)OC(=O)C1C(=O)NC(=O)CC1C(COCc1ccccc1)OCc1ccccc1` (centres undefined), for which the GI50 with EKVX is 25.3 µM (inactive); in the assay on IGROV-1, 22.9 µM (inactive); in the assay with SK-MEL-28 it was 18.1 µM (inactive); with UO-31 it was 27.1 µM (inactive); in the assay on MDA-N it was 18 µM (inactive); in the assay on HOP-92, 15.5 µM (inactive). The GI50 was 17.8 µM (inactive) with KM12; 29.3 µM (inactive) with OVCAR-8; 18.6 µM (inactive) with HCT-116; 20.5 µM (inactive) with SF-295; 21.4 µM (inactive) in the assay on HL-60; 32.1 µM (inactive) in the assay on BT-549. Also, the GI50 was 40.6 µM (inactive) with SNB-19; 17.3 µM (inactive) in the assay with SK-MEL-5; 25.7 µM (inactive) with HCC 2998; 12.1 µM (inactive) with HOP-62; 50.4 µM (inactive) in the assay on CAKI-1.

On to `O=C(O[C@H](/C=C/c1ccccc1)P1(=O)N(Cc2ccccc2)[C@@H]2CCCC[C@H]2N1Cc1ccccc1)c1ccccc1`, for which the GI50 in the assay on EKVX is 3.96 µM (inactive); in the assay with IGROV-1, 3.37 µM (inactive); in the assay with SK-MEL-28, 3.05 µM (inactive); with SK-MEL-2, 2.27 µM (inactive); with UO-31 it was 4.5 µM (inactive); in the assay on MDA-N, 3.68 µM (inactive). Also, the GI50 in the assay with HOP-92 is 1.91 µM (inactive); in the assay with KM12, 3.24 µM (inactive); with OVCAR-8, 3.95 µM (inactive); in the assay with HCT-116, 3.01 µM (inactive); in the assay on SF-295, 3.79 µM (inactive); in the assay with HL-60 it was 3.66 µM (inactive). Besides, the GI50 with BT-549 was 4.55 µM (inactive); with SNB-19, 6.5 µM (inactive); in the assay with SK-MEL-5, 1.86 µM (inactive); in the assay with HCC 2998 it was 5.9 µM (inactive); with HOP-62, 5.38 µM (inactive); in the assay on CAKI-1, 2.16 µM (inactive). Moreover, the GI50 in the assay with SK-OV-3 is 5.41 µM (inactive).

With `CN(C(=O)C12C3C4C1C1C2C3C41C(=O)O)C(C)(C)C` (centres undefined), the GI50 in the assay with EKVX, with SNB-75, in the assay on IGROV-1, in the assay on SK-MEL-28, in the assay on SK-MEL-2 and with UO-31 was > 100 µM (inactive) throughout. Moreover, the GI50 in the assay with MDA-N, in the assay on HOP-92, with KM12, in the assay on OVCAR-8, in the assay with HCT-116 and in the assay on SF-295 was > 100 µM (inactive) in each case. For the same molecule, the GI50 in the assay on HL-60, with BT-549, in the assay on SNB-19, in the assay with SK-MEL-5, in the assay on HCC 2998 and with HOP-62 was > 100 µM (inactive) throughout. For the same molecule, the GI50 with CAKI-1 is > 100 µM (inactive).

For the molecule `Cc1c(C)c2c(c(N)c1C#N)C(=O)N(CCc1ccccc1)C2=O`, the GI50 in the assay with EKVX, in the assay with SNB-75, in the assay on IGROV-1, with SK-MEL-28, in the assay on SK-MEL-2 and in the assay with UO-31 was > 100 µM (inactive) each time. Moreover, the GI50 in the assay with MDA-N, with HOP-92, with KM12, in the assay with OVCAR-8, with HCT-116 and in the assay on SF-295 was > 100 µM (inactive) in each case. Further, the GI50 with HL-60 is 29.2 µM (inactive); in the assay with BT-549, > 100 µM (inactive); in the assay with SNB-19, > 100 µM (inactive); with SK-MEL-5, > 100 µM (inactive); with HCC 2998, > 100 µM (inactive); in the assay with CAKI-1, > 100 µM (inactive).

As for `CC1(C)CC(=O)C(C(c2cccc(O)c2O)C2C(=O)CC(C)(C)CC2=O)C(=O)C1`, the GI50 is > 100 µM (inactive) in the assay on EKVX; > 100 µM (inactive) in the assay with SNB-75; 43.9 µM (inactive) in the assay on IGROV-1; > 100 µM (inactive) with SK-MEL-28; 76.6 µM (inactive) in the assay on SK-MEL-2; > 100 µM (inactive) with MDA-N. Also, the GI50 in the assay with HOP-92 was 49.3 µM (inactive); with KM12, > 100 µM (inactive); in the assay on OVCAR-8, 81.7 µM (inactive); with HCT-116 it was > 100 µM (inactive); in the assay on SF-295, > 100 µM (inactive); with HL-60, < 0.01 µM (active). Also, the GI50 in the assay on BT-549, with SNB-19, with SK-MEL-5, in the assay on HOP-62, in the assay on CAKI-1 and in the assay on SK-OV-3 was > 100 µM (inactive) throughout.

Regarding `NS(=O)(=O)c1cc(S(N)(=O)=O)c(NC(=O)N(c2ccccc2)c2ccccc2)c(Cl)c1Cl`, the GI50 is 19.1 µM (inactive) with EKVX; 8.13 µM (inactive) with IGROV-1; 34.4 µM (inactive) in the assay with SK-MEL-28; 22.6 µM (inactive) in the assay on SK-MEL-2; 20.2 µM (inactive) in the assay on UO-31; 24.7 µM (inactive) in the assay on MDA-N. In addition, the GI50 is 1.72 µM (inactive) with HOP-92; 20.3 µM (inactive) in the assay on KM12; 13.2 µM (inactive) in the assay with OVCAR-8; 38.7 µM (inactive) in the assay with HCT-116; 30.2 µM (inactive) in the assay with SF-295; 24.8 µM (inactive) with HL-60. Further, the GI50 with BT-549 is 15.9 µM (inactive); in the assay with SNB-19, 40.4 µM (inactive); with SK-MEL-5, 14.1 µM (inactive); in the assay with HCC 2998, 19.2 µM (inactive); in the assay on CAKI-1, 21.4 µM (inactive); in the assay with SK-OV-3, 24 µM (inactive).

Turning to `CN1CC(c2ccccc2)C(O)(C2(c3ccccc3)CN(C)CC(c3ccccc3)C2=O)C(c2ccccc2)C1` (centres undefined), the GI50 with EKVX, in the assay with IGROV-1, in the assay with SK-MEL-28, in the assay on SK-MEL-2, in the assay with UO-31 and with MDA-N was > 100 µM (inactive) each time. For the same molecule, the GI50 is 50.1 µM (inactive) with HOP-92; > 100 µM (inactive) with KM12; > 100 µM (inactive) in the assay with OVCAR-8; 75.3 µM (inactive) in the assay with HCT-116; 55.2 µM (inactive) in the assay on SF-295; 22.4 µM (inactive) with HL-60. Further, the GI50 was > 100 µM (inactive) in the assay with BT-549; > 100 µM (inactive) with SNB-19; > 100 µM (inactive) in the assay with SK-MEL-5; 77.1 µM (inactive) with HOP-62; > 100 µM (inactive) with CAKI-1.

In the case of `Cc1c(Cl)ccc2c1NC(=O)C2(O)CC(=O)c1ccc(Cl)cc1Cl` (centres undefined), the GI50 with EKVX was > 46.5 µM (inactive); in the assay on SNB-75, 12.8 µM (inactive); in the assay on IGROV-1, > 50 µM (inactive); with SK-MEL-28, > 50 µM (inactive); in the assay on SK-MEL-2, > 50 µM (inactive); in the assay with UO-31 it was > 50 µM (inactive). For the same molecule, the GI50 with MDA-N is > 50 µM (inactive); with HOP-92, 23.6 µM (inactive); in the assay on KM12, > 50 µM (inactive); in the assay with OVCAR-8, > 50 µM (inactive); with HCT-116, > 50 µM (inactive); in the assay with SF-295, > 50 µM (inactive). For the same molecule, the GI50 was > 50 µM (inactive) with BT-549; > 50 µM (inactive) with SNB-19; > 50 µM (inactive) with SK-MEL-5; > 50 µM (inactive) in the assay with HCC 2998; 19.2 µM (inactive) in the assay with HOP-62; > 28.7 µM (inactive) in the assay on CAKI-1. For the same molecule, the GI50 in the assay on SK-OV-3 was > 45.9 µM (inactive).
